According to US7205119B2, “HA-1 antigen” (Rijksuniversiteit te Leiden, priority 1997, dated 2007):
Where no end group is shown, it is not given here.

Key:
[1] = test system: recombinant HLA-A2.1 and b2-microglobulin; assay: HLA-A2.1 peptide binding assay (inhibition of binding of fluorescent standard peptide, cell free); parameters: species or system human; conditions: for HLA-A2.1 binder class: class assigned from IC50
Protocol: (§1) FIG. 4a. Binding of HA-1^H and HA-1^R peptides to HLA-A2.1. The binding of HA-1^H and HA-1^R peptides were assayed for their ability to inhibit the binding of fluorescent peptide […] (SEQ ID NO: 17) to recombinant HLA-A2.1 and b2-microglobulin in a cell free peptide binding assay. One representative experiment is shown. […] (FIG. 4b.) Reconstitution assay with different concentrations of synthetic HA-1^R peptide with HA-1 specific T cells. The HA-1^R peptide was titrated and preincubated with T2 cells. Three HA-1 specific T cell clones, 5W38, 3HA15 and clone 15 were added and a 4 hr ^51Cr-release assay was performed. Background lysis of T2 by the CTL in the absence of any peptide was for 3HA15 4%, for clone 15 10% and for 5W38 2%. Positive control lysis was for 3HA15 46%, for clone 15 47% and 5W38 48%.
Reconstitution and HLA-A2.1 binding assays were performed to determine the capacity of HA-1^R peptide […] (SEQ ID NO: 5) to bind to HLA-A2.1 and to be recognized by the HA-1 specific T cell clones. […] Different concentrations of […] (SEQ ID NO: 5) were tested in a ^51Cr-release assay with three HA-1 specific T cell clones.
HLA-A2.1 peptide binding assay. A quantitative assay for HLA-A2.1 binding peptides based on the inhibition of binding of the fluorescent labeled standard peptide Hbc 18–27 F to C6 ([…]) (SEQ ID NO: 17) to recombinant HLA-A2.1 protein and B2-microglobulin was used^26,27. In short, HLA-A2.1 concentrations yielding approximately 40–60% bound fluorescent standard peptide were used with 15 pmol/well (150 nM) B2-microglobulin (Sigma). Various doses of the test peptides were coincubated with 100 fmol/well (1 nM) fluorescent standard peptide, HLA-A2.1 and B2-microglobulin for 1 day at room temperature in the dark in a volume of […] in assay.buffer. The percent of MHC-bound fluorescence was determined by gel filtration and the 50% inhibitory dose was deduced for each peptide using one-site competition non-linear regression analysis with the prismgraph software. […]

[2] = test system: HA-1 specific T cell clones 3HA15, clone 15 and 5W38 (T2 target cells); assay: 51Cr-release reconstitution assay (CML assay) with peptide-loaded T2 cells and HA-1 specific CTL clones; format: cell-based, human
Description: FIG. 2. Sequencing of mH HA-1 peptide by tandem mass spectrometry. (FIG. 2a.) Collision activation dissociation mass spectrum of peptide candidate with m/z of 513. (FIG. 2b.) Reconstitution assay with different concentrations of synthetic mH HA-1 peptide with three HA-1 specific T cell clones, 3HA15, clone 15 and 5W38. Background lysis of T2 by the CTL in the absence of any peptide was for 3HA15 4%, for clone 15 10% and for 5W38 2%. Positive control lysis was for 3HA15 46%, for clone 15 47% and 5W38 48%.
as §1, with “48%. […]” for “48%.”

Sequence | HLA-A2.1 binder class [1] | fold lower binding affinity for HLA-A2.1 versus HA-1^H peptide [1] | peptide concentration needed for recognition relative to that for the HA-1^H peptide ([2]; clone 3HA15 only (one out of three clones showed recognition)) | reconstitution of the HA-1 epitope by synthetic peptide ([2]; results not shown)
VLHDDLLEA | high affinity binders |  |  | 
VLRDDLLEA | intermediate binders | 10 fold | 1000 times | 
YXTDRVMTV [peptide candidate m/z 550; X stands for Isoleucine or Leucine] |  |  |  | not able to reconstitute the HA-1 epitope
